In article PMC5742776 (Foods, 2017):

Legend:
Format in all cases: biochemical
renin (EC 3.4.23.15) = experiment: Renin Inhibition Screening Assay; conditions: synthesised peptides, 1 mg/mL; 10 μL sample at 1 mg/mL DMSO + 20 μL substrate, 150 μL buffer, 10 μL renin; 37 °C, 15 min; fluorescence 340/500 nm; mean of triplicate samples
Experimental: Protein isolates from all seven oat varieties and selected synthesised peptides were tested in vitro for renin inhibition activity. The Renin Inhibition Screening Assay (Cambridge BioSciences, Cambridge, UK) was carried out as per the manufacturer’s instructions. Briefly, 10 μL of each sample inhibitor at a concentration of 1 mg/mL dimethyl sulfoxide (DMSO) was added to 20 μL renin substrate, 150 μL assay buffer, and 10 μL renin, in triplicate. The samples were incubated at 37 °C for 15 min, and read with excitation wavelengths of 340 nm and emission wavelengths of 500 nm. Fluorescence was read using a FLUOstar Omega microplate reader (BMG LABTECH GmbH, Offenburg, Germany). The percentage inhibition was calculated using the following equation:% Renin inhibition = 100% Initial activity − Inhibitor × 100/100% Initial activity (1)

[1] = system: angiotensin-I-converting enzyme (ACE-I; EC 3.4.15.1); experiment: ACE-I inhibition assay (ACE Kit-WST); conditions: 1 mg/mL, 37 °C, 1 h, absorbance 450 nm
Experimental: Protein isolates from all seven oat varieties and selected synthesised peptides were tested in vitro for ACE-I inhibition. The bioassay (ACE Kit—WST, Dojindo Laboratories, Kumamoto, Japan) was carried out according to the manufacturer’s instructions. First, 20 μL of each sample inhibitor at a concentration of 1 mg/mL ddH2O was added to 20 μL substrate and 20 μL enzyme working solution in triplicate. Samples were incubated at 37 °C for 1 h. Each well then had 200 μL indicator working solution added, followed by a further incubation at room temperature for 10 min. Absorbance at 450 nm was read using a FLUOstar Omega microplate reader (BMG LABTECH GmbH, Offenburg, Germany). The percentage inhibition was calculated using the following equation:% ACE-I inhibition = 100% Initial activity − Inhibitor × 100/100% Initial activity(2)

[2] = system: dipeptidyl peptidase-IV (DPP-IV; EC 3.4.14.5); conditions: synthesised peptides, 1 mg/mL; 10 μL sample at 1 mg/mL assay buffer + 30 μL buffer, 10 μL DPP-IV, 50 μL substrate; 37 °C, 30 min; fluorescence 355/460 nm; mean of triplicate samples
Experimental: Protein isolates from all seven oat varieties and selected synthesised peptides were tested in vitro for DPP-IV inhibition. […] First, 10 μL of each sample inhibitor at a concentration of 1 mg/mL assay buffer was added to 30 μL diluted assay buffer, 10 μL diluted DPP-IV, and 50 μL substrate solution, in triplicate. Samples were incubated at 37 °C for 30 min. Fluorescence was read with excitation wavelengths of 355 nm and emission wavelengths of 460 nm using a FLUOstar Omega microplate reader (BMG LABTECH GmbH, Offenburg, Germany). The percentage inhibition was calculated using the following equation:% DPP-IV inhibition = 100% Initial activity − Inhibitor × 100/100% Initial activity (3)

[3] = synthesised peptides, 20 μL sample at 1 mg/mL ddH2O + 20 μL substrate, 20 μL enzyme, mean of triplicate samples

| Compound | % ACE-I inhibition [1, 3] [%] | further results |
| --- | --- | --- |
| IFFFL [chemically synthesised peptide; Avenin f(3–7), ficin] | 53 ± 41.2 | % Renin inhibition (renin (EC 3.4.23.15)): 17.1% (±2.6%) |
| C[C@H](CS)C(=O)N1CCC[C@H]1C(=O)O [captopril, reference compound] |  | % ACE-I inhibition ([1]; positive control, triplicate): 97.7% (±23.2%) |
| FEPL [chemically synthesised peptide; 12S globulin f(53–56), papain] | 48.9 ± 7.8 |  |
| FLLA [chemically synthesised peptide; 11S globulin/12S globulin f(203–206), papain] | 97 ± 16.2 |  |
| FPIL [chemically synthesised peptide; 11S globulin f(364–367), ficin] |  | % DPP-IV inhibition [2]: 13.1 ± 3.2% |
